Source: ChEMBL document CHEMBL1155510, “Scaffold rearrangement of dihydroxypyrimidine inhibitors of HIV integrase: Docking model revisited” (Bioorg Med Chem Lett, 2010)

Legend:
[1] = Inhibition of HIV integrase 3'-end processing reaction; design: species or system Human immunodeficiency virus
[2] = Inhibition of HIV integrase strand transfer activity; design: species or system Human immunodeficiency virus

Structure (SMILES) | IC50 [1] [µM] | IC50 [2] [µM]
CNC(=O)c1nc(Cc2ccc(F)cc2)[nH]c(=O)c1O | > 333 | 169
CN(C)CCCNC(=O)c1nc(Cc2ccc(F)cc2)[nH]c(=O)c1O | > 333 | > 333
O=C(O)c1nc(Cc2ccc(F)cc2)[nH]c(=O)c1O | > 333 | 243
CNC(=O)c1nc(Cc2ccc(F)cc2)n(C)c(=O)c1O | > 333 | 241
COCCNC(=O)c1nc(Cc2ccc(F)cc2)[nH]c(=O)c1O | > 333 | 206
CNC(=O)c1nc(C)n(Cc2ccc(F)cc2)c(=O)c1O | > 333 | 111
